Measured values reported in patent US11911436B2, “Amphiphilic peptide chaperones and methods of use” (priority 2021, dated 2024).
Where two headings read alike, the source gives them in different places. Marks after values point to notes of the source that are not given here. Square brackets hold non-standard residues; d marks the D form. Peptide text beside a SMILES is read from it. * marks the point of attachment. Myristoyl = CCCCCCCCCCCCCC(=O)*; dNMeL = CN[C@H](CC(C)C)C(=O)O; TMR = tetramethylrhodamine

Key:
[1] = system: wild-type C. elegans (N2); assay: C. elegans N2 lifespan assay at 20° C. with peptide feeding; assay type: in vivo; settings: N2 worms; for Median Lifespan (Days ± SE): 50 μg peptide with E. coli OP50; for Increase in median survival (%): 50 μg peptide, vs control
Procedure: A schematic of an assay of C. elegans N2 lifespan at 20° C. is shown (FIG. 10A). This involved peptide treatment (50 μg) with E. coli OP50 as a food source. Plates were changed every second day with 50 μg fresh peptide and OP50. Scoring of survival was done every day to the last day of survival. 50 mM FUdR was added in experimental plates between D1 and D5 to prevent progeny production.

[2] = system: C. elegans (N2 strain); assay: Thermotolerance assay, continuous heat stress at 35° C.; assay type: in vivo; settings: N2 worms
Procedure: The lifespan of wild type C. elegans with and without peptide at a restrictive temperature was measured.
A schematic representation of the thermotolerance assay used is shown (FIG. 11A). 24 hours of 50 μg peptide treatment at 20° C. of a synchronized population of wild type C. elegans was followed by a continuous heat stress at 35° C. Worms were scored every two hours for 24 hours for survival.

[3] = system: CL2006 C. elegans; assay: CL2006 lifespan at 20° C. (paralysis and death model); assay type: in vivo; settings: CL2006 worms, 50 μg peptide
Procedure: CL2006 C. elegans were used as a paralysis and death model. Worms are maintained at 15° C., with adult onset paralysis induced at 20° C.
50 μg CPAMC and CPPRAMC peptide or controls were added to CL2006 worms, and the fraction left alive over time at the restrictive temperature of 20° C. was quantified (FIG. 12). […] (FIG. 12).

[4] = system: CL4176 C. elegans; assay: CL4176 Aβ-induced paralysis and survival assay; assay type: in vivo; settings: CL4176 worms
Procedure: CL4176 C. elegans is a temperature sensitive strain. Worms are maintained at 15° C. and shifted to increased temperature to cause Aβ-induced paralysis in adults. This has been used as a C. elegans model of Alzheimer's disease.
A scheme of a paralysis assay with CL4176 worms is shown (FIG. 13A). Peptide treatment began on CL4176 embryos and continued throughout the experiment. After 2 days at 15° C., the temperature was increased to the restrictive temperature of 25° C. Worms were scored for survival and paralysis.
Example images of paralyzed and non-paralyzed worms are shown (FIG. 13C).

[5] = system: C. elegans wild-type (N2 strain); assay: Paraquat (PQ)-induced oxidative stress survival; assay type: in vivo; settings: five-day old N2 worms, 50 μg peptide 24 hours, 50 mM PQ
Procedure: Five-day old N2 worms were pretreated with 50 μg peptide for 24 hours and subjected to 50 mM PQ. The survival of the worms was monitored every hour under a microscope until the end of survival. […] The median survival value (50% survival) in CPPRAMC, CPAMC, and CP-SC (control) peptides corresponds to 9.6 h, 8.9 h and 5.9 h, respectively, as compared to vehicle control (5.5 h) (FIG. 14).

[6] = system: C. elegans (N2) worms; assay: Juglone (JG)-induced oxidative stress survival; assay type: in vivo; settings: N2 worms at day 5, 50 μg peptide 24 h, 50 μM JG
Procedure: N2 worms at day 5 pretreated for 24 h with 50 μg CPAMC or CP-SC (control) and subjected to 50 μM JG. Survival was checked every hour under a microscope until the end of survival. The median survival value in CPAMC and CP-SC (control) peptides corresponds to 7.3 h and 5.9 h, respectively, compared to vehicle control (4.9 h) (FIG. 15).

[7] = system: human red blood cells; assay: Melittin-induced hemolysis of human RBC; assay type: cell-based; settings: 2% human RBC, room temperature 30 min, OD 540 nm
Procedure: Hemolysis of human red blood cells with melittin was measured with varying concentrations of CPAMC (FIG. 3). To 0.3 mL of 2% human RBC (red blood cell) suspension was added 2 μM melittin and/or peptides taken in 0.7 mL of PBS. The tubes were incubated at room temperature for 30 min, centrifuged, and the OD of the supernatant was measured at 540 nm. PBS and PBS containing 0.1% TritonX-100 served as negative and positive control, respectively.
The protective effect of Myr-CPAMC peptide of human red blood cells (RBC) from melittin-induced hemolysis was also examined. To 0.3 mL of 2% human RBC suspension was added to melittin and/or peptide taken in 0.7 mL of PBS. The tubes were incubated at room temperature for 30 min, centrifuged (FIG. 5A) and the OD of the supernatant was measured at 540 nm. PBS and PBS containing 0.1% TritonX-100 served as negative and positive control, respectively.

[8] = system: ARPE-19 cells; assay: Sodium iodate cytotoxicity, cell viability imaging; assay type: cell-based; settings: 7.5 mM sodium iodate, 24 hours
Procedure: Sodium iodate is a chemical that induces oxidative stress and cell death. The ability of CPPRAMC peptide to block the cytotoxic action of sodium iodate was investigated. ARPE-19 cells cultured on a 96-well plate were treated with 7.5 mM sodium iodate and/or CPPRAMC peptide for 24 hours. At the end of the incubation, cell viability imaging was done using the EarlyTox cell integrity kit (Molecular Devices, Sunnyvale, Calif.) (FIG. 6A). The percentage of dead cells in each sample was calculated from the live/dead cell imaging data using the Softmax Pro software (FIG. 6B).
The ability of Myr-CPAMC peptide to block the cytotoxic action of sodium iodate was also investigated. Authenticated ARPE-19 cells cultured on a 96-well plate were treated with 7.5 mM sodium iodate and/or Myr-CPAMC peptide for 24 hours. At the end of the incubation, cell viability imaging was done using the EarlyTox cell integrity kit (Molecular Devices, Sunnyvale, Calif.) (FIG. 7A). The percentage of dead cells in each sample was calculated from the live/dead cell imaging data using the Softmax Pro software (FIG. 7B).

[9] = system: ARPE-19 cells; assay: Peptide toxicity to cells, cell viability imaging; assay type: cell-based; settings: increasing peptide concentrations
Procedure: Cell viability imaging was performed on cells with increasing concentrations of Myr-CPAMC, with fluorescent staining used to indicate dead cells (FIG. 9A).

[10] = target: Proteinase K (Parengyodontium album, UniProt P06873); assay: Proteinase K incubation, HPLC profiles; assay type: in vitro ADME; settings: 100 μg peptide, 10 μg Proteinase K, overnight
Chain of Proteinase K (P06873 106-384, species assumed): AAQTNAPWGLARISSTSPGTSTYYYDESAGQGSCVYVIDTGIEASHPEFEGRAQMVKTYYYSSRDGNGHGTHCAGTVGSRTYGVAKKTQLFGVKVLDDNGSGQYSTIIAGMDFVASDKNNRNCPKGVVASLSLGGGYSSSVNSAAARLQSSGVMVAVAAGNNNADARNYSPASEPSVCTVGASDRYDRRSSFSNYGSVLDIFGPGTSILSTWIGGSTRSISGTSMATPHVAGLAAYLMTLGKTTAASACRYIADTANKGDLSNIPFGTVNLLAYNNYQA

[11] = system: ARPE-19 cells, hiPSC-NSC cultures, and NSC-derived neurons; assay: Peptide entry into cells (fluorescent label); settings: fluorescently labeled peptide
[12] = system: ARPE-19 cells, hiPSC-NSC cultures, and NSC-derived neurons

CH3-VPTLKdlplknvedkfhrsfvesvk-NH2 [CP-cp, reference compound]
Median Lifespan (Days ± SE) [1]: 13.23 ± 0.20 days
Increase in median survival (%) [1]: 0%
% increase in survival ([2]; 35° C., 50 μg peptide, vs control): 0%
Median survival ± SE (hours at 35° C.) ([2]; 24 hours 50 μg peptide at 20° C., then 35° C.): 7.4 ± 0.4 h
Median survival ± SE (days at 20° C.) [3]: 7.0 ± 0.28 days
% increase in survival ([3]; vs control): 2.0%
% increase in median survival ([4]; 25° C., vs control): 0%
Median survival Hours ± SE ([4]; 2 days at 15° C., then 25° C.): 44.7 ± 0.4 h
median survival value (50% survival) [5]: 5.9 h
median survival value [6]: 5.9 h

CCCCCCCCCCCCCC(=O)N[C@@H](CCCCN)C(=O)N[C@@H](CC(C)C)C(=O)N[C@@H](Cc1ccccc1)C(=O)N[C@H](C(=O)N[C@H](C(=O)N[C@@H](Cc1ccccc1)C(=O)N[C@@H](CC(C)C)C(=O)N[C@H](C(=O)N[C@@H](Cc1c[nH]cn1)C(=O)N[C@@H](Cc1ccccc1)C(=O)N[C@@H](CO)C(=O)N1CCC[C@H]1C(=O)NCC(=O)N[C@@H](CCCNC(=N)N)C(=O)N[C@@H](CC(=O)O)C(=O)N[C@@H](CCC(=O)O)C(=O)N[C@@H](CC(=O)O)C(=O)N[C@@H](CCCCN)C(=O)N[C@@H](CC(=O)O)C(=O)N[C@@H](CCC(=O)O)C(=O)N[C@@H](CCCCN)C(N)=O)C(C)C)[C@@H](C)CC)C(C)C [Myr-CPAMC] (Myristoyl-KLFVIFLVHFSPGRDEDKDEK-NH2)
hemolysis by melittin in presence of peptide [7]: protects human red blood cells (RBC) from melittin-induced hemolysis
percentage of dead cells with sodium iodate and peptide [8]: protects ARPE-19 cells from sodium iodate-induced cytotoxicity
toxicity of peptide to cells [9]: non-toxic to cells

CC[C@@H](C)[C@@H](NC(=O)[C@H](NC(=O)[C@@H](Cc1ccccc1)NC(=O)[C@@H](CC(C)C)NC)C(C)C)C(=O)N[C@H](Cc1ccccc1)C(=O)N[C@H](CC(C)C)C(=O)N[C@@H](C(=O)N[C@H](Cc1c[nH]cn1)C(=O)N[C@H](Cc1ccccc1)C(=O)N[C@H](CO)C(=O)N1CCC[C@@H]1C(=O)NCC(=O)N[C@H](CCCNC(=N)N)C(=O)N[C@H](CC(=O)O)C(=O)N[C@H](CCC(=O)O)C(=O)N[C@H](CC(=O)O)C(=O)N[C@H](CCCCN)C(=O)N[C@H](CC(=O)O)C(=O)N[C@H](CCC(=O)O)C(=O)N[C@H](CCCCN)C(N)=O)C(C)C [CPPRAMC, CH3-lfviflvhfspgrdedkdek-NH2] (H-[dNMeL][dF][dV][dI][dF][dL][dV][dH][dF][dS][dP]G[dR][dD][dE][dD][dK][dD][dE][dK]-NH2; N-terminus and C-terminus assumed)
resistance to proteolytic cleavage [10]: resistant to proteolytic cleavage
entry of peptide into cells [11]: readily penetrates neural cells

CH3-DFVIFLDVKHFSPEDLTVK-NH2 (Me-DFVIFLDVKHFSPEDLTVK-NH2; SMILES CC[C@H](C)[C@H](NC(=O)[C@@H](NC(=O)[C@H](Cc1ccccc1)NC(=O)[C@H](CC(=O)O)NC)C(C)C)C(=O)N[C@@H](Cc1ccccc1)C(=O)N[C@@H](CC(C)C)C(=O)N[C@@H](CC(=O)O)C(=O)N[C@H](C(=O)N[C@@H](CCCCN)C(=O)N[C@@H](Cc1c[nH]cn1)C(=O)N[C@@H](Cc1ccccc1)C(=O)N[C@@H](CO)C(=O)N1CCC[C@H]1C(=O)N[C@@H](CCC(=O)O)C(=O)N[C@@H](CC(=O)O)C(=O)N[C@@H](CC(C)C)C(=O)N[C@H](C(=O)N[C@H](C(=O)N[C@@H](CCCCN)C(N)=O)C(C)C)[C@@H](C)O)C(C)C) [MC-αA, Parent peptide from αA crystallin]
Median Lifespan (Days ± SE) [1]: 16.10 ± 0.25 days
Increase in median survival (%) [1]: 20* %

Myristoyl-{K(TMR)}LFVIFLVHFSPGRDEDKDEK-NH2 (Myristoyl-K(TMR)LFVIFLVHFSPGRDEDKDEK-NH2) [Myr-(TMR)-CPAMC]
toxicity of peptide to cells [9]: not toxic to cells
entry of peptide into cells [12]: can enter into ARPE-19 cells at different concentrations
